Results reported in ChEMBL document CHEMBL1909046, “DrugMatrix in vitro pharmacology data”.

Experiments:
[1] = target: Cytochrome P450 2D6 (Homo sapiens, UniProt P10635); conditions: bti-tn-5b1-4; note: in other assays of this panel Not Active means under 50% inhibition at 10 µM
[2] = target: T1, Neutrophil elastase (Homo sapiens, UniProt P08246); assay type: tissue-based;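 note: inhibition of neutrophil elastase enzyme activity, measured with a p-nitroanilide-linked peptide substrate; in other assays of this panel Not Active means under 50% inhibition at 10 µM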
T1 sequence (P08246 whole entry): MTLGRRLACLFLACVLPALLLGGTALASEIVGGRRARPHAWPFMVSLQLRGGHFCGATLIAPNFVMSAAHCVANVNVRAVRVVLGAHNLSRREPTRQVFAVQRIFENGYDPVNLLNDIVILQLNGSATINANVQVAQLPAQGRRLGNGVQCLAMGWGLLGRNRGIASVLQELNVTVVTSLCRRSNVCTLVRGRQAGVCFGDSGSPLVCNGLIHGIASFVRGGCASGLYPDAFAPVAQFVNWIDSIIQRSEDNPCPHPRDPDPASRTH

[3] = DRUGMATRIX: Phosphodiesterase PDE3 enzyme inhibition (substrate: [3H]cAMP + cAMP); assay type: tissue-based, Homo sapiens; conditions: platelet; Not Active = under 50% inhibition at 10 µM
[4] = DRUGMATRIX: Glutamate, NMDA, Agonism radioligand binding (ligand: [3H] CGP-39653); assay type: cell membranes, Rattus norvegicus, Wistar, Cerebral cortex, Membrane; conditions: Not Active = under 50% inhibition at 10 µM
[5] = target: T2, Leukotriene C4 synthase (Cavia porcellus, UniProt A6XA80); assay type: tissue-based, Lung;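 note: enzyme inhibition assay of leukotriene C4 synthase, using LTA4 as the substrate; in other assays of this panel Not Active means under 50% inhibition at 10 µM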
T2 sequence (A6XA80 whole entry): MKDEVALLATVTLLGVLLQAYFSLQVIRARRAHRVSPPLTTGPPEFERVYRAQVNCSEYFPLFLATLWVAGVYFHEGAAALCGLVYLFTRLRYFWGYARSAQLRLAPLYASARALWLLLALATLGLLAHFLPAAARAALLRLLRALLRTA

[6] = DRUGMATRIX: Sigma2 radioligand binding (ligand: [3H] Ifenprodil); assay type: cell membranes, Rattus norvegicus, Wistar, Brain, Membrane; conditions: Not Active = under 50% inhibition at 10 µM
[7] = target: Mitogen-activated protein kinase 14 (Homo sapiens, UniProt Q16539); design: species or system Escherichia coli;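 note: inhibition of p38alpha enzyme activity in a biochemical kinase assay, with myelin basic protein serving as substrate; in other assays of this panel Not Active means under 50% inhibition at 10 µM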
Mitogen-activated protein kinase 14, sequence (Q16539 whole entry): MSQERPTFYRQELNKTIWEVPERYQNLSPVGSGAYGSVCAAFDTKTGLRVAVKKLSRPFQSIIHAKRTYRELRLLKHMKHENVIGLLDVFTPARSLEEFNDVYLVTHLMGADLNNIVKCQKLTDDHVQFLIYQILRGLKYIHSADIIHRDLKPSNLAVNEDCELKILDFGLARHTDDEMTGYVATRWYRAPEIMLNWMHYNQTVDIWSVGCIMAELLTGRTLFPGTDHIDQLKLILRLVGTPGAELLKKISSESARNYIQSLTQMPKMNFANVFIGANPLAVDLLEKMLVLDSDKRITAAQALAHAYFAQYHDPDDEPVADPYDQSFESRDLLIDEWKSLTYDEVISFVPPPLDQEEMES

Cytochrome P450 2D6, sequence (P10635 whole entry): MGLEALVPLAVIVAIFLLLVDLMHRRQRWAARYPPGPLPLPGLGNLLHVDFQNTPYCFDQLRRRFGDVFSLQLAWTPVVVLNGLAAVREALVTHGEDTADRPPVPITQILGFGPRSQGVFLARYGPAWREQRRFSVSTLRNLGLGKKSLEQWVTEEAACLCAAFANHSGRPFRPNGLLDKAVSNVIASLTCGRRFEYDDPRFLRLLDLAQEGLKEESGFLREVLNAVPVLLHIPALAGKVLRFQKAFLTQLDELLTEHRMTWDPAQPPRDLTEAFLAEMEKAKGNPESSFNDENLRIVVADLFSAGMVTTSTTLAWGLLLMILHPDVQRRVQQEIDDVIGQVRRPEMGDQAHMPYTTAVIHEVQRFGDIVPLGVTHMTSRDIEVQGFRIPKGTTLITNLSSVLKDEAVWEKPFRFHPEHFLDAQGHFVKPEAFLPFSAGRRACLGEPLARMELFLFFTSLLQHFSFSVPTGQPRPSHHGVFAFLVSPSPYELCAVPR

| SMILES | IC50 [1] | Ki [1] | IC50 [2] | IC50 [3] | Ki [3] | IC50 [4] | Ki [4] | IC50 [5] | IC50 [6] | Ki [6] | IC50 [7] | IC50 ([7]; read-out: IC50) |
| --- | --- | --- | --- | --- | --- | --- | --- | --- | --- | --- | --- | --- |
| CC(=O)OC[C@H]1O[C@@H](n2ncc(=O)[nH]c2=O)[C@H](OC(C)=O)[C@@H]1OC(C)=O [AZARIBINE] | Not Active | Not Active | Not Active | Not Active | Not Active | Not Active | Not Active | Not Active | Not Active | Not Active | Not Active |  |
| NC(=O)N1c2ccccc2CC(=O)c2ccccc21 [OXCARBAZEPINE] | Not Active | Not Active | Not Active | Not Active | Not Active | Not Active | Not Active | Not Active | Not Active | Not Active | Not Active |  |
| C#C[C@]1(O)CC[C@H]2[C@@H]3CCC4=CC(=O)CC[C@]4(C)[C@H]3CC[C@@]21C [ETHISTERONE] | Not Active | Not Active | Not Active | Not Active | Not Active | Not Active | Not Active | Not Active | Not Active | Not Active | Not Active |  |
| CCC1=C(C)CN(C(=O)NCCc2ccc(S(=O)(=O)NC(=O)N[C@H]3CC[C@H](C)CC3)cc2)C1=O [GLIMEPIRIDE] | Not Active | Not Active | Not Active | Not Active | Not Active | Not Active | Not Active | Not Active | Not Active | Not Active | Not Active |  |
| O=C(O)CCCc1cccs1 | Not Active | Not Active | Not Active | Not Active | Not Active | Not Active | Not Active | Not Active | Not Active | Not Active | Not Active |  |
| Cc1ccc(C)c(OCCCC(C)(C)C(=O)O)c1 [GEMFIBROZIL] | Not Active | Not Active | Not Active | Not Active | Not Active | Not Active | Not Active | Not Active | Not Active | Not Active | Not Active |  |
| O=C(O)CCNC(=O)c1ccc(/N=N/c2ccc(O)c(C(=O)O)c2)cc1 [BALSALAZIDE] | Not Active | Not Active | Not Active | Not Active | Not Active | Not Active | Not Active | Not Active | Not Active | Not Active | Not Active |  |
| C[S+](C)[O-] [DIMETHYL SULFOXIDE] | Not Active | Not Active | Not Active | Not Active | Not Active | Not Active | Not Active | Not Active | Not Active | Not Active | Not Active |  |
| O=C(c1ccccc1F)N1CCC(Cc2ccccc2)CC1 | Not Active | Not Active | Not Active | Not Active | Not Active | Not Active | Not Active | Not Active | Not Active | Not Active |  | 537 nM |
| COc1cc(OC)c(C(=O)CCCN2CCCC2)c(OC)c1 [BUFLOMEDIL] | Not Active | Not Active | Not Active | Not Active | Not Active | Not Active | Not Active | Not Active | Not Active | Not Active | Not Active |  |
| COC(=O)Nc1nc2cc(C(=O)c3ccc(F)cc3)ccc2[nH]1 [FLUBENDAZOLE] | Not Active | Not Active | Not Active | Not Active | Not Active | Not Active | Not Active | Not Active | Not Active | Not Active | Not Active |  |
| COc1ccnc(C[S+]([O-])c2nc3ccc(OC(F)F)cc3[nH]2)c1OC (stereo not drawn) [PANTOPRAZOLE] | Not Active | Not Active | Not Active | Not Active | Not Active | Not Active | Not Active | Not Active | Not Active | Not Active | Not Active |  |
| CCc1ccc(CCOc2ccc(CC3SC(=O)NC3=O)cc2)nc1 (stereo not drawn) [PIOGLITAZONE] | Not Active | Not Active | Not Active | Not Active | Not Active | Not Active | Not Active | Not Active | Not Active | Not Active | Not Active |  |
